Measurements as given in publication PMC10987521, “An all-in-one tetrazine reagent for cysteine-selective labeling and bioorthogonal activable prodrug construction” (Nature Communications, 2024).

Columns and labels:
[1] = Labeling reaction kinetics between tetrazine 1 and Cys; type: physicochemical; conditions: 25 °C, PB (30% MeCN, 20 mM, pH 8.0), equal concentrations, UV-Vis 300 nm
Experimental: The second-order rate constant for the labeling reactions between tetrazine 1 and Cys was determined at 25 °C in PB (30% MeCN, 20 mM, pH 8.0) under second-order conditions using a 6000+ (Quawell) UV-Vis spectrophotometer. The concentrations of cysteine and tetrazine were identical. The specific difference in absorption wavelength (300 nm) between 1 and Cys-1 was measured over time. The second-order rate constant k2 was calculated from the slope of a plot of (1/c – 1/c0) versus time.
5. Competitive labeling reaction with other nucleophilic amino acids
For the competitive labeling experiment, 10 equiv. (2 mM) of N-Fmoc-Lys, N-Fmoc-Arg, Ser, Tyr, and 1.3 equiv. […] The resulting solution was maintained at 25 °C and monitored by LC –MS. […]
Each voTz analogue (1.1 equiv.) was added to a 0.25 mL vial containing solvent. […] The chromatogram peak areas of all relevant Cys -containing species were integrated, and the yiel d was determined using the following equation: Yield (%) = Iproduct/(Istarting + Iproduct + Ioxidation + Iside product) × 100, where Istarting, Iproduct, Ioxidation, and Iside product respectively represent the average ion counts of remaining starting material, product, oxidized starting material and any side product, if present 2. […]
DLS analyses and particle zeta potential values were determined using a Nano ZS ZEN 3690 instrument (Malvern […]

B16F10 cells [2] = assay: Cytotoxicity (CCK8, 48 h) of drugs, PDCs, activable-Drugs and TCO, B16F10; type: cell-based, Mouse; conditions: Mus musculus, B16-F10; B16F10, 48 h, CCK8, n = 3; activable-Dox: RGD-Dox 2 h, then 200 μM TCO, 48 h in total
U87 cells = assay: Cytotoxicity (CCK8, 48 h) of drugs, PDCs, activable-Drugs and TCO, U87; type: cell-based, Human; conditions: Homo sapiens, U-87 MG; U87, 48 h, CCK8, n = 3; activable-Dox: RGD-Dox 2 h, then 200 μM TCO, 48 h in total
SKOV3 cells = assay: Cytotoxicity (CCK8, 48 h) of drugs, PDCs, activable-Drugs and TCO, SKOV3; type: cell-based, Human; conditions: Homo sapiens, SK-OV-3; SKOV3, 48 h, CCK8, n = 3; activable-Dox: RGD-Dox 2 h, then 200 μM TCO, 48 h in total
LX2 cells = assay: Cytotoxicity (CCK8, 48 h) of drugs, PDCs, activable-Drugs and TCO, LX2; type: cell-based, Human; conditions: Homo sapiens, LX-2; LX2 (αvβ3-negative), 48 h, CCK8, n = 3; activable-Dox: RGD-Dox 2 h, then 200 μM TCO
B16F10 cells [3] = assay: Cell uptake by fluorescence imaging, B16F10; type: cell-based, Mouse; conditions: B16F10 and LX2 cells, 10 μM, 2 h
Experimental: (§1) B16F10 cells were cultured for 48 h. […]
(§2) 12.1 Calculation of the fluorescence coefficient (F c)
(§3) The Fc was the radio calculated
(§4) 12.2 Uptake calculation of the B16F10 cells […]
(§5) deviation were analyzed using Origin Pro 2015.
(§6) B16F10 cells, characterized by α vβ3
(§7) Following the incubation period, the
Subsequently, the cells were trypsinized and underwent three PBS rinses.
12 .4 Cell uptake analysis by fluorescence imaging

B16F10 cells [4] = assay: Comparison of cell uptake between RGD-Dox and Dox using flow cytometry; type: cell-based, Mouse
Experimental: as §1, §2, §3, §4, §5, §6, §7
Subsequently, the cells were trypsinized and underwent three PBS rinses. […]

B16F10 melanoma tumor = assay: In vivo anticancer efficacy, subcutaneous B16F10 melanoma tumor model; set-up: species or system BALB/c nude mice
Experimental: Tumor-bearing mice were established by subcutaneously injecting a suspension of 5 × 10^5 B16F10 cells per mouse into the front flank of each nude mouse. When tumor volume reached 50−70 mm^3, the animals were randomly divided into five groups (n = 5). The mice were administered different compounds suspended in PBS via the tail vein every 3 days for a total of four times.
(§8) The mice underwent four treatment courses on day 0, day 3, day 6, and day 9. Tumor size and body weight were measured every day. Tumor volume was calculated via the following formula: V = 1/2 × (minor axis) × (major axis)[2].
(§9) After 12 days, the mice were sacrificed and dissected to obtain tumor tissues and main organs, including heart, liver, spleen, lung, and kidney. Subsequently, all tissues were fixed in a 4% paraformaldehyde solution, routinely paraffin-embedded and sectioned, and then stained with hematoxylin and eosin, as well as using TdT-mediated dUTP nick-end labeling (TUNEL) for subsequent pathological analysis. TUNEL-positive cells appeared fluorescent green, representing the apoptosis of tumor cells (nuclei were fluorescent blue, stained with DAPI).
13. In vivo anticancer efficacy […]
13.2 Calculation of the tumor growth inhibition values (TGI)
Tumor growth inhibition values (TGI) were calculated using the following formula: TGI (%) = (1 − RTVtreatment/
RTVcontrol)*100. RTV refers to relative tumor volume, representing the ratio of the volume at the end of treatment to the
volume at the beginning of treatment. […]

[5] = Body weight and organ histology in the B16F10 tumor model; type: in vivo, BALB/c nude mice
Experimental: as §8, §9

[6] = tested on: B16F10, U87, SKOV3 and LX2 cells; assay: Cytotoxicity (CCK8, 48 h), figures stated across several cell lines; type: cell-based; conditions: read-out: IC50 values against all four cell lines

Structure (SMILES)	second-order rate constant of the labeling reaction between 1 and Cys [1] [M⁻¹ s⁻¹]	IC50 (B16F10 cells [2]) [µM]	IC50 (U87 cells) [µM]	IC50 (SKOV3 cells) [µM]	IC50 (LX2 cells) [µM]	cellular uptake of free drug (imaging) (B16F10 cells [3])	Normalized uptake (B16F10 cells [4]; normalized to Dox = 1, Data 1)	Normalized uptake (B16F10 cells [4]; normalized to Dox = 1, Data 2)	Normalized uptake (B16F10 cells [4]; normalized to Dox = 1, Data 3)	tumor growth inhibition values (TGI %) (B16F10 melanoma tumor; Data 5) [%]	tumor growth inhibition value (TGI) (B16F10 melanoma tumor; after four i.v. courses (days 0, 3, 6, 9), 3.67 μmol·kg^−1, n = 5, TGI = (1 − RTVtreatment/RTVcontrol)*100) [%]	tumor growth / inhibition in words (B16F10 melanoma tumor; four i.v. courses, 3.67 μmol·kg^−1 (TCO-P4 36.7 μmol·kg^−1), n = 5)	histology of heart, liver, spleen, lung, kidney ([5]; after 12 days)	body weight in words ([5]; four i.v. courses, 3.67 μmol·kg^−1, compared with PBS group)	IC50 [6] [µM]
C=Cc1nnc(-c2ccccc2)nn1 [compound 1, phenyl vinyltetrazine]	13 ± 0.8	–	–	–	–	–	–	–	–	–	–	–	–	–	–
COc1cccc2c1C(=O)c1c(O)c3c(c(O)c1C2=O)C[C@@](O)(C(=O)CO)C[C@@H]3O[C@H]1C[C@H](N)[C@H](O)[C@H](C)O1 [Dox, doxorubicin]	–	2.05	3.26	4.45	3.37	obvious uptake through nonspecific diffusion and internalization	1	1	1	46.63	59.4	slightly slowed the tumor growth	typical inflammatory injury	serious loss of body weight	2.05 to 4.45
